{
  "source": "ChEMBL document CHEMBL5724914",
  "about": "“Linking interpersonal differences in gut microbiota composition and drug biotransformation activity” (2024)",
  "key": {"[1]": {"assay": "(§1) The drug is tested on Z-030 corresponding to mouse gut metagenome with ENA study accession number: PRJEB37062 and ENA sample accession number: ERS12561829 for biotransformation under anaerobic condition. The drug concentrations were measured over 9 timepoints collected between 0 and 24 hours of incubation by liquid-chromatography-coupled mass spectrometry (LC–MS)", "details": "2 µM"}, "[2]": {"assay": "as §1, with “Z-029” for “Z-030”, “rat” for “mouse”, “ERS12561828” for “ERS12561829”", "details": "2 µM"}, "[3]": {"assay": "as §1, with “Z-027” for “Z-030”, “to” for “to mouse gut”, “ERS12561826” for “ERS12561829”", "details": "2 µM"}, "[4]": {"assay": "as §1, with “Z-018” for “Z-030”, “pig” for “mouse”, “ERS12561817” for “ERS12561829”", "details": "2 µM"}, "[5]": {"assay": "as §1, with “Z-014” for “Z-030”, “rat” for “mouse”, “ERS12561814” for “ERS12561829”", "details": "2 µM"}, "[6]": {"assay": "as §1, with “Z-009” for “Z-030”, “pig” for “mouse”, “ERS12561809” for “ERS12561829”", "details": "2 µM"}, "[7]": {"assay": "as §1, with “Z-008” for “Z-030”, “to” for “to mouse gut”, “ERS12561808” for “ERS12561829”", "details": "2 µM"}, "[8]": {"assay": "as §1, with “Z-007” for “Z-030”, “rat” for “mouse”, “ERS12561807” for “ERS12561829”", "details": "2 µM"}, "[9]": {"assay": "as §1, with “Z-003” for “Z-030”, “pig” for “mouse”, “ERS12561803” for “ERS12561829”", "details": "2 µM"}, "[10]": {"assay": "as §1, with “Z-001” for “Z-030”, “ERS12561801” for “ERS12561829”", "details": "2 µM"}, "[11]": {"assay": "as §1, with “WLS-370” for “Z-030”, “human” for “mouse”, “ERS12561793” for “ERS12561829”", "details": "2 µM"}, "[12]": {"assay": "as §1, with “WLS-098” for “Z-030”, “human” for “mouse”, “ERS12561754” for “ERS12561829”", "details": "2 µM"}, "[13]": {"assay": "as §1, with “WLS-082” for “Z-030”, “human” for “mouse”, “ERS12561751” for “ERS12561829”", "details": "2 µM"}, "[14]": {"assay": "as §1, with “WLS-073” for “Z-030”, “human” for “mouse”, “ERS12561749” for “ERS12561829”", "details": "2 µM"}, "[15]": {"assay": "as §1, with “WLS-069” for “Z-030”, “human” for “mouse”, “ERS12561748” for “ERS12561829”", "details": "2 µM"}, "[16]": {"details": "human gut metagenome, 24 h, 2 µM"}, "[17]": {"details": "human gut metagenome, 24 h, 2 µM", "remark": "listed apart in the source"}, "[18]": {"details": "human gut metagenome, 24 h, 2 µM", "remark": "listed apart in the source"}, "[19]": {"details": "human gut metagenome, 24 h, 2 µM", "remark": "listed apart in the source"}, "[20]": {"details": "human gut metagenome, 24 h, 2 µM", "remark": "listed apart in the source"}},
  "data": [
    {"compound": "CCCC(C)(COC(N)=O)COC(=O)NC(C)C", "note": "(stereo not given) [CARISOPRODOL]; note: call rule not given here", "values": [
      {"measurement": "Bacterial Biotransformation", "setting": "[1]", "value": "Compound NOT metabolized"},
      {"measurement": "Bacterial Biotransformation", "setting": "[2]", "value": "Compound NOT metabolized"},
      {"measurement": "Bacterial Biotransformation", "setting": "[3]", "value": "Compound metabolized"},
      {"measurement": "Bacterial Biotransformation", "setting": "[4]", "value": "Compound metabolized"},
      {"measurement": "Bacterial Biotransformation", "setting": "[5]", "value": "Compound metabolized"},
      {"measurement": "Bacterial Biotransformation", "setting": "[6]", "value": "Compound metabolized"},
      {"measurement": "Bacterial Biotransformation", "setting": "[7]", "value": "Compound metabolized"},
      {"measurement": "Bacterial Biotransformation", "setting": "[8]", "value": "Compound NOT metabolized"},
      {"measurement": "Bacterial Biotransformation", "setting": "[9]", "value": "Compound metabolized"},
      {"measurement": "Bacterial Biotransformation", "setting": "[10]", "value": "Compound metabolized"},
      {"measurement": "Bacterial Biotransformation", "setting": "[11]", "value": "Compound metabolized"},
      {"measurement": "Bacterial Biotransformation", "setting": "[12]", "value": "Compound metabolized"},
      {"measurement": "Bacterial Biotransformation", "setting": "[13]", "value": "Compound metabolized"},
      {"measurement": "Bacterial Biotransformation", "setting": "[14]", "value": "Compound metabolized"},
      {"measurement": "Bacterial Biotransformation", "setting": "[15]", "value": "Compound metabolized"},
      {"measurement": "Bacterial Biotransformation", "setting": "[16]", "value": "Compound metabolized"},
      {"measurement": "Bacterial Biotransformation", "setting": "[17]", "value": "Compound metabolized"},
      {"measurement": "Bacterial Biotransformation", "setting": "[18]", "value": "Compound metabolized"},
      {"measurement": "Bacterial Biotransformation", "setting": "[19]", "value": "Compound metabolized"},
      {"measurement": "Bacterial Biotransformation", "setting": "[20]", "value": "Compound NOT metabolized"}
    ]},
    {"compound": "COc1ccc(C(CN(C)C)C2(O)CCCCC2)cc1", "note": "(stereo not given) [VENLAFAXINE]", "values": [
      {"measurement": "Bacterial Biotransformation", "setting": "[1]", "value": "Compound NOT metabolized"},
      {"measurement": "Bacterial Biotransformation", "setting": "[2]", "value": "Compound NOT metabolized"},
      {"measurement": "Bacterial Biotransformation", "setting": "[3]", "value": "Compound NOT metabolized"},
      {"measurement": "Bacterial Biotransformation", "setting": "[4]", "value": "Compound NOT metabolized"},
      {"measurement": "Bacterial Biotransformation", "setting": "[5]", "value": "Compound NOT metabolized"},
      {"measurement": "Bacterial Biotransformation", "setting": "[6]", "value": "Compound NOT metabolized"},
      {"measurement": "Bacterial Biotransformation", "setting": "[7]", "value": "Compound NOT metabolized"},
      {"measurement": "Bacterial Biotransformation", "setting": "[8]", "value": "Compound NOT metabolized"},
      {"measurement": "Bacterial Biotransformation", "setting": "[9]", "value": "Compound NOT metabolized"},
      {"measurement": "Bacterial Biotransformation", "setting": "[10]", "value": "Compound metabolized"},
      {"measurement": "Bacterial Biotransformation", "setting": "[11]", "value": "Compound NOT metabolized"},
      {"measurement": "Bacterial Biotransformation", "setting": "[12]", "value": "Compound NOT metabolized"},
      {"measurement": "Bacterial Biotransformation", "setting": "[13]", "value": "Compound NOT metabolized"},
      {"measurement": "Bacterial Biotransformation", "setting": "[14]", "value": "Compound NOT metabolized"},
      {"measurement": "Bacterial Biotransformation", "setting": "[15]", "value": "Compound NOT metabolized"},
      {"measurement": "Bacterial Biotransformation", "setting": "[16]", "value": "Compound NOT metabolized"},
      {"measurement": "Bacterial Biotransformation", "setting": "[17]", "value": "Compound NOT metabolized"},
      {"measurement": "Bacterial Biotransformation", "setting": "[18]", "value": "Compound NOT metabolized"},
      {"measurement": "Bacterial Biotransformation", "setting": "[19]", "value": "Compound NOT metabolized"},
      {"measurement": "Bacterial Biotransformation", "setting": "[20]", "value": "Compound metabolized"}
    ]},
    {"compound": "Cc1cc(C)cc(OCC2CNC(=O)O2)c1", "note": "(stereo not given) [METAXALONE]", "values": [
      {"measurement": "Bacterial Biotransformation", "setting": "[1]", "value": "Compound NOT metabolized"},
      {"measurement": "Bacterial Biotransformation", "setting": "[2]", "value": "Compound NOT metabolized"},
      {"measurement": "Bacterial Biotransformation", "setting": "[3]", "value": "Compound metabolized"},
      {"measurement": "Bacterial Biotransformation", "setting": "[4]", "value": "Compound NOT metabolized"},
      {"measurement": "Bacterial Biotransformation", "setting": "[5]", "value": "Compound NOT metabolized"},
      {"measurement": "Bacterial Biotransformation", "setting": "[6]", "value": "Compound NOT metabolized"},
      {"measurement": "Bacterial Biotransformation", "setting": "[7]", "value": "Compound NOT metabolized"},
      {"measurement": "Bacterial Biotransformation", "setting": "[8]", "value": "Compound NOT metabolized"},
      {"measurement": "Bacterial Biotransformation", "setting": "[9]", "value": "Compound NOT metabolized"},
      {"measurement": "Bacterial Biotransformation", "setting": "[10]", "value": "Compound NOT metabolized"},
      {"measurement": "Bacterial Biotransformation", "setting": "[11]", "value": "Compound metabolized"},
      {"measurement": "Bacterial Biotransformation", "setting": "[12]", "value": "Compound metabolized"},
      {"measurement": "Bacterial Biotransformation", "setting": "[13]", "value": "Compound metabolized"},
      {"measurement": "Bacterial Biotransformation", "setting": "[14]", "value": "Compound NOT metabolized"},
      {"measurement": "Bacterial Biotransformation", "setting": "[15]", "value": "Compound metabolized"},
      {"measurement": "Bacterial Biotransformation", "setting": "[16]", "value": "Compound NOT metabolized"},
      {"measurement": "Bacterial Biotransformation", "setting": "[17]", "value": "Compound NOT metabolized"},
      {"measurement": "Bacterial Biotransformation", "setting": "[18]", "value": "Compound metabolized"},
      {"measurement": "Bacterial Biotransformation", "setting": "[19]", "value": "Compound metabolized"},
      {"measurement": "Bacterial Biotransformation", "setting": "[20]", "value": "Compound metabolized"}
    ]},
    {"compound": "Br.COc1ccc2c(c1)[C@]13CCCC[C@@H]1[C@H](C2)N(C)CC3.O", "note": "[DEXTROMETHORPHAN HYDROBROMIDE]", "values": [
      {"measurement": "Bacterial Biotransformation", "setting": "[1]", "value": "Compound NOT metabolized"},
      {"measurement": "Bacterial Biotransformation", "setting": "[2]", "value": "Compound NOT metabolized"},
      {"measurement": "Bacterial Biotransformation", "setting": "[3]", "value": "Compound NOT metabolized"},
      {"measurement": "Bacterial Biotransformation", "setting": "[4]", "value": "Compound metabolized"},
      {"measurement": "Bacterial Biotransformation", "setting": "[5]", "value": "Compound NOT metabolized"},
      {"measurement": "Bacterial Biotransformation", "setting": "[6]", "value": "Compound metabolized"},
      {"measurement": "Bacterial Biotransformation", "setting": "[7]", "value": "Compound NOT metabolized"},
      {"measurement": "Bacterial Biotransformation", "setting": "[8]", "value": "Compound NOT metabolized"},
      {"measurement": "Bacterial Biotransformation", "setting": "[9]", "value": "Compound metabolized"},
      {"measurement": "Bacterial Biotransformation", "setting": "[10]", "value": "Compound NOT metabolized"},
      {"measurement": "Bacterial Biotransformation", "setting": "[11]", "value": "Compound metabolized"},
      {"measurement": "Bacterial Biotransformation", "setting": "[12]", "value": "Compound metabolized"},
      {"measurement": "Bacterial Biotransformation", "setting": "[13]", "value": "Compound NOT metabolized"},
      {"measurement": "Bacterial Biotransformation", "setting": "[14]", "value": "Compound NOT metabolized"},
      {"measurement": "Bacterial Biotransformation", "setting": "[15]", "value": "Compound metabolized"},
      {"measurement": "Bacterial Biotransformation", "setting": "[16]", "value": "Compound NOT metabolized"},
      {"measurement": "Bacterial Biotransformation", "setting": "[17]", "value": "Compound NOT metabolized"},
      {"measurement": "Bacterial Biotransformation", "setting": "[18]", "value": "Compound metabolized"},
      {"measurement": "Bacterial Biotransformation", "setting": "[19]", "value": "Compound metabolized"},
      {"measurement": "Bacterial Biotransformation", "setting": "[20]", "value": "Compound metabolized"}
    ]}
  ]
}
